Experiment [1] relates to Acinetobacter baumannii/haemolyticus: Multidrug-resistant clinical isolate AB-3167. Briefly: MIC determination (CLSI), AB-3167. The conditions noted are these: overnight incubation, duplicate, lower of the two values reported. The format is cell-based. The procedure:
(§1) The in vitro antibacterial activity of compounds described in the Examples was evaluated by minimum inhibitory concentration (MIC) testing according to Clinical and Laboratory Standards Institute (CLSI). See: Clinical and Laboratory Standards Institute. Methods for Dilution Antimicrobial Susceptibility Tests for Bacteria that Grow Aerobically; Approved Standard-Eighth Edition. CLSI document M7-A8 [ISBN 1-56238-689-1]. Clinical and Laboratory Standards Institute, 940 West Valley Road, Suite 1400, Wayne, Pa. 19087-1898 USA, 2006; also Clinical and Laboratory Standards Institute. Performance Standards for Antimicrobial Susceptibility Testing; Twentieth Informational Supplement. CLSI document M100-S20 [ISBN1-56238-716-2]. Clinical and Laboratory Standards Institute.
(§2) The MIC determination is a standard laboratory method for evaluating the antibacterial activity of a compound. The MIC represents the lowest drug concentration that inhibits visible growth of bacteria following overnight incubation. […] Typically, the drug concentration range is broken down into 2-fold increments (e.g., 0.06 μg/mL, 0.12 μg/mL. 0.25 μg/mL, 0.50 μg/mL, 1.0 μg/mL, etc.) and the various drug concentrations are all individually incubated overnight with approximately the same number of bacteria. The MIC is then determined by visually inspecting the drug effect at each concentration, and identifying the lowest drug concentration that has inhibited bacterial growth as compared to the drug free control. Typically, bacteria continue to grow at drug concentrations lower than the MIC and don't grow at concentrations at and above the MIC.
(§3) The MIC values described in Tables 4 and 5 below were derived from assays wherein each test compound was evaluated in duplicate. In cases where the duplicate values varied by 0-2-fold, the lower of the two values was reported below. Generally speaking, if the duplicate values varied by more than 2-fold, the assay was considered non-valid and was repeated until the variation between duplicate runs was 2-fold. In line with the CLSI guidelines referred to above, both control organisms and reference compounds were utilized in each MIC assay to provide proper quality control. MIC values generated with these control organisms and reference compounds were required to fall within a defined range for the assay to be considered valid and be included herein. Those skilled in the art will recognize that MIC values can and do vary from experiment to experiment. Generally speaking, it should be recognized that MIC values often vary +/−2-fold from experiment to experiment. While a single MIC is reported for each compound and each microorganism, the reader should not conclude that each compound was only tested once. Several of the compounds were subjected to multiple tests. The data reported in Tables 4 and 5 is reflective of the compound's relative activity and different MICs may have been generated on these occasions in line with the guidelines described above.
(§4) The following bacterial strains were used in these MIC determinations:
3) Acinetobacter baumannii/haemolyticus: Multidrug-resistant clinical isolate labeled as AB-3167 in Tables 4 and 5;

Experiment [2] deals with Pseudomonas aeruginosa UC12120 (mouse virulent). Kind of experiment: MIC determination (CLSI), PA-UC12120. The format is cell-based. The conditions noted are these: UC12120, read-out: PA-UC12120 MIC. The procedure:
as §1, §2, §3, §4
1) Pseudomonas aeruginosa UC12120 (mouse virulent) labeled as PA-UC12120 in Tables 4 and 5;

Experiment [3] has as its system Escherichia coli EC-1: VOGEL, mouse virulent. Briefly: MIC determination (CLSI), EC-1. Type of experiment: cell-based. The conditions noted are these: read-out: EC-1 MIC. As for the experimental part: as §1, §2, §3, §4
2) Escherichia coli EC-1: VOGEL, mouse virulent labeled as EC-1 in Tables 4 and 5;

Experiment [4] deals with T1, Pseudomonas aeruginosa LpxC enzyme (Pseudomonas aeruginosa, UniProt P47205).
T1 construct: made in house; host or cells: E. coli
T1 sequence (P47205 1-303): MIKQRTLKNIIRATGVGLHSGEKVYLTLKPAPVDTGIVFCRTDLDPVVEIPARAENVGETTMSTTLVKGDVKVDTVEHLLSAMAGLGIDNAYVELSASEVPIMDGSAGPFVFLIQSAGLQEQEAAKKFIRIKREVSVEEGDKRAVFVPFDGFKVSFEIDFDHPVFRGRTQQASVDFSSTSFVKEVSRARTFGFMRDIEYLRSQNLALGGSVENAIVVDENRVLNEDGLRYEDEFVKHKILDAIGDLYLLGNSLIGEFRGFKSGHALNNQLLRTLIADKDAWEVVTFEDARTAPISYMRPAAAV
Briefly: LpxC enzyme IC50 assay (PA LpxC enzyme IC50), BioTrove RapidFire mass spectrometry. Type of experiment: biochemical. The procedure: In order to assess the compounds biological activity selected in vitro assays were conducted on selected compounds. One of the assays measured the compounds ability to disrupt the synthesis of lipopolysaccharide, LPS, which is a component of the outer membrane of Gram-negative bacteria. Disruption of this synthesis is lethal to the bacteria. The assay determined the compound's ability to inhibit LpxC, which is the first enzyme in the biosynthetic pathway for LPS (measured as IC50). Additionally, MICs (minimal inhibitory concentrations) were determined for several bacteria. The specific protocols are described below:
A) IC50 Assay LpxC Enzyme from P. aeruginosa Labeled as PA LpxC Enzyme IC50):
At the end of 1 hour, 5 ul of 1 N HCl was added to stop the enzyme reaction, the plates were centrifuged, and then processed with the BioTrove Rapidfire HTMS Mass Spectrometry System. A no-enzyme control was used in calculating the IC50 values from the percent conversion values.

The mark [5] stands for this setting: P. aeruginosa LpxC enzyme 0.1 nM, 25° C., 1 hour, pH 8.0, read-out: PA:IC50.

Molecules are shown by their SMILES. ≈ marks a conversion by molar mass, not a printed value. Read-outs that look alike come from different tables or passages of the source.

In general, MIC refers to the lowest concentration that inhibits growth of the organism. The IC50 is the concentration needed to halve the response being measured.

For `CC(CCc1cc(-c2ccncc2F)no1)(C(=O)NO)S(C)(=O)=O` (racemic) [Example 37, 4-[3-(3-fluoropyridin-4-yl)isoxazol-5-yl]-N-hydroxy-2-methyl-2-(methylsulfonyl)butanamide], the figures for the MIC in experiment [1], in experiment [2] and in experiment [3] were greater than 64 µg/mL, 16 µg/mL (≈ 44.8 µM) and greater than 64 µg/mL, respectively. In addition, in experiment [4] (setting [5]), the IC50 is 52.4 nM.

Take `CC(CCc1cc(CNS(=O)(=O)c2ccc(F)cc2)on1)(C(=O)NO)S(C)(=O)=O` (racemic) [Example 27, 4-[5-({[(4-fluorophenyl)sulfonyl]amino}methyl)isoxazol-3-yl]-N-hydroxy-2-methyl-2-(methylsulfonyl)butanamide]: the MIC in experiment [1], in experiment [2] and in experiment [3] was greater than 64 µg/mL each time. Also, the half-maximal inhibitory concentration (IC50) in experiment [4] (setting [5]) is greater than 100 nM.

Regarding `CCCCSC(=O)N(C)Cc1cc(CCC(C)(C(=O)NO)S(C)(=O)=O)no1` (racemic) [Example 14, S-butyl ({3-[4-(hydroxyamino)-3-methyl-3-(methylsulfonyl)-4-oxobutyl]isoxazol-5-yl}methyl)methylthiocarbamate], the MIC in experiment [1], in experiment [2] and in experiment [3] was greater than 64 µg/mL throughout. Besides, the IC50 in experiment [4] (setting [5]) is greater than 100 nM.

`CC(CCc1cc(-c2cccc(F)c2)no1)(C(=O)NO)S(C)(=O)=O` (racemic) [Example 34, 4-[3-(3-fluorophenyl)isoxazol-5-yl]-N-hydroxy-2-methyl-2-(methylsulfonyl)butanamide]: the MIC is greater than 64 µg/mL in experiment [1], 2 µg/mL (≈ 5.61 µM) in experiment [2] and 32 µg/mL (≈ 89.8 µM) in experiment [3]. For the same compound, the IC50 in experiment [4] (setting [5]) worked out at 9.3 nM.

For the compound `COc1cccc(OC)c1-c1cc(CCC(C)(C(=O)NO)S(C)(=O)=O)no1` (racemic) [Example 24, 4-[5-(2,6-dimethoxyphenyl)isoxazol-3-yl]-N-hydroxy-2-methyl-2-(methylsulfonyl)butanamide], the MIC in experiment [1], in experiment [2] and in experiment [3] was greater than 64 µg/mL each time. For the same compound, the IC50 in experiment [4] (setting [5]) is greater than 100 nM.

In the case of `CCCCNC(=O)OCc1cc(CCC(C)(C(=O)NO)S(C)(=O)=O)no1` (racemic) [Example 25, {3-[4-(hydroxyamino)-3-methyl-3-(methylsulfonyl)-4-oxobutyl]isoxazol-5-yl}methyl butylcarbamate], the MIC in experiment [1], in experiment [2] and in experiment [3] was greater than 64 µg/mL throughout. In experiment [4] (setting [5]), the IC50 is greater than 100 nM.

For the compound `C[C@@](CCc1cc(-c2ccccc2)on1)(C(=O)NO)S(C)(=O)=O` [Example 6, (2R)-N-hydroxy-2-methyl-2-(methylsulfonyl)-4-(5-phenylisoxazol-3-yl)butanamide], the minimal inhibitory concentration (MIC) in experiment [1] is greater than 64 µg/mL; in experiment [2] it was 0.25 µg/mL (≈ 0.739 µM); in experiment [3], 8 µg/mL (≈ 23.6 µM). Further, half-maximal inhibition in experiment [4] (IC50) required 0.51 nM.

Turning to `COc1cccc(-c2cc(CC[C@](C)(C(=O)NO)S(C)(=O)=O)on2)c1F` [Example 1, (2R)-4-[3-(2-Fluoro-3-methoxyphenyl)isoxazol-5-yl]-N-hydroxy-2-methyl-2-(methylsulfonyl)butanamide], the minimum inhibitory concentration (MIC) in experiment [1] was greater than 64 µg/mL; in experiment [2], 2 µg/mL (≈ 5.18 µM); in experiment [3], 4 µg/mL (≈ 10.4 µM). The compound also yielded an IC50 in experiment [4] of 5.32 nM.

For the compound `CC(CCc1cc(-c2ccccc2F)on1)(C(=O)NO)S(C)(=O)=O` (racemic) [Example 8, 4-[5-(2-fluorophenyl)isoxazol-3-yl]-N-hydroxy-2-methyl-2-(methylsulfonyl)butanamide], the MIC in experiment [1] is greater than 64 µg/mL; in experiment [2], 1 µg/mL (≈ 2.81 µM); in experiment [3] it was 16 µg/mL (≈ 44.9 µM). In addition, in experiment [4], half-maximal inhibition (IC50) was put at 8.3 nM.

For `COc1ccc(-c2cc(CCC(C)(C(=O)NO)S(C)(=O)=O)on2)cc1OC` (racemic) [Example 42, 4-[3-(3,4-dimethoxyphenyl)isoxazol-5-yl]-N-hydroxy-2-methyl-2-(methylsulfonyl)butanamide], the MIC was greater than 64 µg/mL in experiment [1], 64 µg/mL (≈ 161 µM) in experiment [2] and greater than 64 µg/mL in experiment [3]. In addition, in experiment [4] (setting [5]), the IC50 came to 38.6 nM.

Regarding `CC(CCc1cc(-c2ccc3c(c2)OCO3)no1)(C(=O)NO)S(C)(=O)=O` (racemic) [Example 33, 4-[3-(1,3-benzodioxol-5-yl)isoxazol-5-yl]-N-hydroxy-2-methyl-2-(methylsulfonyl)butanamide], the MIC in experiment [1] was greater than 64 µg/mL; in experiment [2], 2 µg/mL (≈ 5.23 µM); in experiment [3] it was 16 µg/mL (≈ 41.8 µM). Also, the IC50 in experiment [4] (setting [5]) was found to be 5.1 nM.

As for `CC(CCc1cc(-c2cccc(Cl)c2Cl)on1)(C(=O)NO)S(C)(=O)=O` (racemic) [Example 30, 4-[5-(2,3-dichlorophenyl)isoxazol-3-yl]-N-hydroxy-2-methyl-2-(methylsulfonyl)butanamide], the MIC is greater than 64 µg/mL in experiment [1], 1 µg/mL (≈ 2.46 µM) in experiment [2] and 4 µg/mL (≈ 9.82 µM) in experiment [3]. The midpoint of inhibition in experiment [4], the IC50, lay at 2.7 nM.

With `COc1ccc(-c2cc(CC[C@](C)(C(=O)NO)S(C)(=O)=O)on2)c(F)c1` [Example 3, (2R)-4-[3-(2-fluoro-4-methoxyphenyl)isoxazol-5-yl]-N-hydroxy-2-methyl-2-(methylsulfonyl)butanamide], the MIC in experiment [1] is greater than 64 µg/mL; in experiment [2] it was 0.5 µg/mL (≈ 1.29 µM); in experiment [3] it was 4 µg/mL (≈ 10.4 µM). This compound also had an IC50 in experiment [4] of 4.4 nM.

In the case of `C[C@@](CCc1cc(-c2ccccc2)no1)(C(=O)NO)S(C)(=O)=O` [Example 4, (2R)-N-hydroxy-2-methyl-2-(methylsulfonyl)-4-(3-phenylisoxazol-5-yl)butanamide], the figures for the MIC in experiment [1], in experiment [2] and in experiment [3] were greater than 64 µg/mL, 0.25 µg/mL (≈ 0.739 µM) and 4 µg/mL (≈ 11.8 µM), respectively. Also, in experiment [4] (setting [5]), the IC50 is 5.78 nM.

The record behind these values is patent publication US8748466B2, “Isoxazole derivatives useful as antibacterial agents” (Pfizer Inc., priority 2011, dated 2014).
